{
  "source": "patent EP1180991B1",
  "about": "“GAMBOGIC ACID DERIVATIVES AS ACTIVATORS OF CASPASES AND INDUCERS OF APOPTOSIS” (Cytovia, Inc., priority 1999, dated 2000)",
  "key": {"HL-60": {"test_system": "HL-60", "assay": "Caspase cascade activation assay (Example 90)", "assay_type": "cell-based, human", "conditions": "HL-60, 24 h incubation", "experimental": "(§1) Human breast cancer cell lines T-47D and ZR-75-1, human prostate cancer cell line PC-3, human leukemia cancer cell line HL-60 and human non-transformed fibroblast cell line MRC-5 cells were grown according to media component mixtures designated by The American Type Culture Collection + 10% FCS (Life Technologies, Inc.), in a 5% CO2 -95% humidity incubator at 37° C. T-47D, ZR-75-1 and PC-3 cells were maintained at a cell density between 30 and 80% confluency and for HL-60 at a cell density of 0.1 to 0.6 x 10^6 cells/ml. Cells were harvested at 600xg and resuspended at 0.65 x 10^6 cells/ml into appropriate media + 10% FCS. […] The samples were mixed by agitation and incubated at room temperature.\n(§2) The EC50 (nM) was determined by a sigmoidal dose-response calculation (Prism 2.0, GraphPad Software Inc.). Caspase Activity and Potency"}, "MRC-5": {"test_system": "MRC-5", "assay": "Caspase cascade activation assay (Example 90)", "assay_type": "cell-based, human", "conditions": "MRC-5 non-transformed fibroblasts, 24 h incubation", "experimental": "as §1, §2"}, "PC-3 [1]": {"test_system": "PC-3", "assay": "Caspase cascade activation assay (Example 90)", "assay_type": "cell-based, human", "conditions": "PC-3, 24 h incubation", "experimental": "as §1, §2"}, "T-47D": {"test_system": "T-47D", "assay": "Caspase cascade activation assay (Example 90)", "assay_type": "cell-based, human", "conditions": "T-47D, 24 h incubation", "experimental": "as §1, §2"}, "ZR-75-1": {"test_system": "ZR-75-1", "assay": "Caspase cascade activation assay (Example 90)", "assay_type": "cell-based, human", "conditions": "ZR-75-1, 24 h incubation", "experimental": "as §1, §2"}, "A-549": {"test_system": "A-549", "assay": "Caspase activity with and without caspase inhibitor (Example 97)", "assay_type": "cell-based, human", "design": "key to Inhibition of caspase activity by Inhibitor: The caspase activity detected was inhibited by the caspase inhibitor (+)", "experimental": "(§3) T47D, ZR-75, PC3, SHP-77 and A-549 cells were maintained and harvested as described in Example 90. Cells were added to 96-well plates as described in Example 90. The cells were treated with 10 µM gambogic acid, in the presence and in the absence of 10 µM caspase inhibitor cbz-Val-Asp-fink (Cytovia, Inc.; WO99/18781). The plate was incubated up to 24 h at 37° C in a 5% CO2-95% humidity incubator. Caspase activity was determined by addition of a fluorogenic substrate as described in Example 90.\n(§4) Gambogic acid induced caspase activity in a ratio of greater than 2.5 (+) above untreated cell levels in all the tested cancer cell lines (Table IV). The caspase activity detected was inhibited by the caspase inhibitor (+), confirming that the fluorescent signal was due to caspase activity. Table IV. Gambogic Acid as Caspase Inducers in Solid Tumor Cells"}, "PC-3 [2]": {"test_system": "PC-3", "assay": "Caspase activity with and without caspase inhibitor (Example 97)", "assay_type": "cell-based, human", "design": "key to Inhibition of caspase activity by Inhibitor: The caspase activity detected was inhibited by the caspase inhibitor (+)", "experimental": "as §3, §4"}, "SHP-77": {"test_system": "SHP-77", "assay": "Caspase activity with and without caspase inhibitor (Example 97)", "assay_type": "cell-based, human", "design": "key to Inhibition of caspase activity by Inhibitor: The caspase activity detected was inhibited by the caspase inhibitor (+)", "experimental": "as §3, §4"}, "T47D": {"test_system": "T47D", "assay": "Caspase activity with and without caspase inhibitor (Example 97)", "assay_type": "cell-based, human", "design": "key to Inhibition of caspase activity by Inhibitor: The caspase activity detected was inhibited by the caspase inhibitor (+)", "experimental": "as §3, §4"}, "ZR-75": {"test_system": "ZR-75", "assay": "Caspase activity with and without caspase inhibitor (Example 97)", "assay_type": "cell-based, human", "design": "key to Inhibition of caspase activity by Inhibitor: The caspase activity detected was inhibited by the caspase inhibitor (+)", "experimental": "as §3, §4"}, "T47D cells": {"test_system": "T47D cells", "assay": "Nuclear fragmentation, Syto16 DNA stain (Example 94)", "assay_type": "cell-based, human", "conditions": "10 µM, 24 h (Fig. 2B)", "experimental": "T47D cells were grown and plated as described in Example 90. The cells were treated with 10 µM of gambogic acid and the plate was incubated for up to 24 h at 37°C in a 5% CO2-95% humidity incubator. At 24 h, the cells were incubated with a live cell nucleic acid stain, Syto16 (Molecular Probes) which stains DNA. After 2 washes with PBS, cells were examined under a fluorescence microscope. […] Nuclear fragmentation is a clear indicator of cellular apoptosis."}, "Jurkat T leukemia cells": {"test_system": "Jurkat T leukemia cells", "assay": "Apoptotic morphology, phase-contrast microscope (Example 95)", "assay_type": "cell-based, human", "conditions": "10 µM", "experimental": "Jurkat T leukemia cells were grown in RPMI 1640 media (Life Technologies, Inc.) + 10% FCS (Sigma Chemical Company) in a 5% CO2-95% humidity incubator at 37° C, and maintained at a cell density between 4 and 8 x 10^5 cells/ml. Cells were harvested at 200xg and resuspended at 1-2 x 10^6 cells/ml into RPMI 1640 media + 10% FCS, and 3 ml of the cells was dispensed in each of three wells of a 6-well plate. One of the wells was treated with 10 µM caspase inhibitor cbz-Val-Asp-fink (Cytovia, Inc.; WO99/18781) and the plate was incubated at 37° C in a 5% CO2-95% humidity incubator for 1 h prior to addition of gambogic acid. The wells with and without the caspase inhibitor were treated with 10 µM gambogic acid. The third well was treated with solvent (control cells). The plate was incubated at 37° C in a 5% CO2-95% humidity incubator.\nAt 30 min. after addition of gambogic acid an aliquot of cells from each well was taken into the capillary slides and observed under a phase-contrast microscope."}, "KB": {"test_system": "KB", "conditions": "Lin et al. 1993; cited from earlier work"}, "KB-V1": {"test_system": "KB-V1", "conditions": "Lin et al. 1993; cited from earlier work"}, "[3]": {"conditions": "0.16 to 10 µM final, net RFU ratio to control"}, "[4]": {"conditions": "Homo sapiens, caspase activation, read-out: EC50"}, "[5]": {"conditions": "10 µM plus 10 µM caspase inhibitor cbz-Val-Asp-fink"}, "[6]": {"conditions": "Homo sapiens, 10 µM, up to 24 h"}},
  "data": [
    {"smiles": "CC(C)=CCC[C@]1(C)C=Cc2c(O)c3c(c(CC=C(C)C)c2O1)O[C@]12C(=C[C@@H]4C[C@H]1C(C)(C)O[C@@]2(C/C=C(/C)C(=O)O)C4=O)C3=O", "note": "[Example 1, Gambogic Acid]", "values": [
      {"measurement": "caspase activity (Ratio)", "setting": "HL-60; [3]", "result": 6.3},
      {"measurement": "EC50", "setting": "HL-60; [4]", "result": 400, "unit": "nM"},
      {"measurement": "EC50", "setting": "MRC-5; Homo sapiens, MRC5, caspase activation, read-out: EC50", "result": 1410, "unit": "nM"},
      {"measurement": "caspase activity (Ratio)", "setting": "MRC-5; [3]", "result": 17.8},
      {"measurement": "EC50", "setting": "PC-3 [1]; [4]", "result": 1500, "unit": "nM"},
      {"measurement": "caspase activity (Ratio)", "setting": "PC-3 [1]; [3]", "result": 2.1},
      {"measurement": "EC50", "setting": "T-47D; Homo sapiens, T47D, caspase activation, read-out: EC50", "result": 560, "unit": "nM"},
      {"measurement": "caspase activity (Ratio)", "setting": "T-47D; [3]", "result": 13.6},
      {"measurement": "EC50", "setting": "ZR-75-1; [4]", "result": 1400, "unit": "nM"},
      {"measurement": "caspase activity (Ratio)", "setting": "ZR-75-1; [3]", "result": 11.9},
      {"measurement": "Inhibition of caspase activity by Inhibitor", "setting": "A-549; [5]", "result": "+"},
      {"measurement": "fold induction at 10 µM", "setting": "A-549; Homo sapiens, A549, 10 µM, up to 24 h", "result": "> 2.5"},
      {"measurement": "Inhibition of caspase activity by Inhibitor", "setting": "PC-3 [2]; [5]", "result": "+"},
      {"measurement": "fold induction at 10 µM", "setting": "PC-3 [2]; [6]", "result": "> 2.5"},
      {"measurement": "Inhibition of caspase activity by Inhibitor", "setting": "SHP-77; [5]", "result": "+"},
      {"measurement": "fold induction at 10 µM", "setting": "SHP-77; Homo sapiens, SHP77, 10 µM, up to 24 h", "result": "> 2.5"},
      {"measurement": "Inhibition of caspase activity by Inhibitor", "setting": "T47D; [5]", "result": "+"},
      {"measurement": "fold induction at 10 µM", "setting": "T47D; [6]", "result": "> 2.5"},
      {"measurement": "Inhibition of caspase activity by Inhibitor", "setting": "ZR-75; [5]", "result": "+"},
      {"measurement": "fold induction at 10 µM", "setting": "ZR-75; Homo sapiens, ZR75, 10 µM, up to 24 h", "result": "> 2.5"},
      {"measurement": "nuclear fragmentation", "setting": "T47D cells", "result": "condensed and fragmented nuclei in a large population of the cells"},
      {"measurement": "apoptotic morphology", "setting": "Jurkat T leukemia cells; 30 min (Fig. 3B)", "result": "blebbing and cellular fragmentation"},
      {"measurement": "apoptotic morphology in the presence of caspase inhibitor", "setting": "Jurkat T leukemia cells; 30 min, with 10 µM caspase inhibitor cbz-Val-Asp-fink (Fig. 3C)", "result": "prevented the morphological changes"},
      {"measurement": "cytotoxicity", "setting": "KB", "result": "cytotoxic"},
      {"measurement": "cytotoxicity", "setting": "KB-V1", "result": "cytotoxic"}
    ]}
  ]
}
